Laboratory results reported in publication PMC6881182 (Nature microbiology, 2019).

Tests used:
[1] = biological target: RgNanOx (RUMGNA_02695), oxidoreductase (Mediterraneibacter gnavus, UniProt A7B558); test: HPLC of DMB-labelled product with and without cofactor; assay type: biochemical
[2] = tested on: CC(=O)N[C@H]1[C@H]2O[C@@](C(=O)O)(C[C@@H]1O)O[C@@H]2[C@H](O)CO; test: purified protein; details: NAD+ or NADH
[3] = biological target: EcNanA (E. coli Neu5Ac lyase/aldolase) (Escherichia coli, UniProt P0A6L4); test: lactate dehydrogenase-coupled aldolase assay; assay type: biochemical
[4] = biological target: T1, RgNanA (RUMGNA_02692), sialic acid aldolase (Mediterraneibacter gnavus, UniProt A7B555, K177A); test: X-ray crystal structure; assay type: binding
T1 sequence (A7B555 11-315 K177A): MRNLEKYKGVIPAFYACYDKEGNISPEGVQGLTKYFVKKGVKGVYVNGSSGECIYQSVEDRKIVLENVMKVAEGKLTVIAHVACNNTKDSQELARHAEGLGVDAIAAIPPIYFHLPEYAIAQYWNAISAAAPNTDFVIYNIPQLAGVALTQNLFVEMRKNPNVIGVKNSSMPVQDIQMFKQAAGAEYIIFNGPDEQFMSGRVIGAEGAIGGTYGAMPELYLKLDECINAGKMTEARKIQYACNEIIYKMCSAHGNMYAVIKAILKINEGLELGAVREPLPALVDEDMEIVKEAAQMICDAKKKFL

purified protein = substrate: CC(=O)N[C@@H]1[C@@H](O)CC(O)(C(=O)O)O[C@H]1C(O)C(O)CO; test: purified protein

Molecule: NC(=O)C1=CN([C@@H]2O[C@H](COP(=O)(O)OP(=O)(O)OC[C@H]3O[C@@H](n4cnc5c(N)ncnc54)[C@H](O)[C@@H]3O)[C@@H](O)[C@H]2O)C=CC1 [NADH]
- HPLC of DMB-labelled product with and without cofactor (500 μM) [1]: Neu5Ac was produced in the presence of NAD^+ or NADH, but not in the presence of FAD

Molecule: NC(=O)c1ccc[n+]([C@@H]2O[C@H](COP(=O)([O-])OP(=O)(O)OC[C@H]3O[C@@H](n4cnc5c(N)ncnc54)[C@H](O)[C@@H]3O)[C@@H](O)[C@H]2O)c1 [NAD^+]
- HPLC of DMB-labelled product with and without cofactor (500 μM) [1]: Neu5Ac was produced in the presence of NAD^+ or NADH, but not in the presence of FAD

Molecule: RgNanOx (RUMGNA_02695), oxidoreductase (Mediterraneibacter gnavus ATCC 29149)
- Km [2]: 74 ± 14 µM

Molecule: CC(=O)N[C@@H]1[C@@H](O)CC(O)(C(=O)O)O[C@H]1C(O)C(O)CO (stereo partly drawn) [Neu5Ac]
- lactate dehydrogenase-coupled aldolase assay (control enzyme) [3]: RgNanA and EcNanA (E. coli Neu5Ac lyase/aldolase used as a control) showed activity against Neu5Ac
- X-ray crystal structure (5 mM Neu5Ac soak of inactive mutant) [4]: complex between an inactive mutant, RgNanA K167A, and Neu5Ac showed Neu5Ac in the open-chain ketone form

B1: RgNanA (RUMGNA_02692), sialic acid aldolase (Mediterraneibacter gnavus ATCC 29149) (protein)
chain: MAFMKQRSKTMRNLEKYKGVIPAFYACYDKEGNISPEGVQGLTKYFVKKGVKGVYVNGSSGECIYQSVEDRKIVLENVMKVAEGKLTVIAHVACNNTKDSQELARHAEGLGVDAIAAIPPIYFHLPEYAIAQYWNAISAAAPNTDFVIYNIPQLAGVALTQNLFVEMRKNPNVIGVKNSSMPVQDIQMFKQAAGAEYIIFNGPDEQFMSGRVIGAEGAIGGTYGAMPELYLKLDECINAGKMTEARKIQYACNEIIYKMCSAHGNMYAVIKAILKINEGLELGAVREPLPALVDEDMEIVKEAAQMICDAKKKFL
- Km (purified protein): 1473 ± 98 µM
